Source: patent EP1247803A2, “Indolinone compounds suitable for modulation of protein kinases” (Sugen, Inc., priority 1996, dated 1998)

Legend:
MET = MET biochemical kinase assay; parameters: species or system human; concentration or dose not given beside the values
In short: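 Plates coated with anti-rabbit Fc bind a rabbit anti-MET antibody that captures receptor from cell lysates; unbound protein is washed off before compound and ATP-containing kinase buffer go in.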

PDGF-R = PDGF-R (Homo sapiens, UniProt P09619); assay: PDGF-R ELISA; format: cell-based
Sequence of PDGF-R (P09619 33-1106, species assumed): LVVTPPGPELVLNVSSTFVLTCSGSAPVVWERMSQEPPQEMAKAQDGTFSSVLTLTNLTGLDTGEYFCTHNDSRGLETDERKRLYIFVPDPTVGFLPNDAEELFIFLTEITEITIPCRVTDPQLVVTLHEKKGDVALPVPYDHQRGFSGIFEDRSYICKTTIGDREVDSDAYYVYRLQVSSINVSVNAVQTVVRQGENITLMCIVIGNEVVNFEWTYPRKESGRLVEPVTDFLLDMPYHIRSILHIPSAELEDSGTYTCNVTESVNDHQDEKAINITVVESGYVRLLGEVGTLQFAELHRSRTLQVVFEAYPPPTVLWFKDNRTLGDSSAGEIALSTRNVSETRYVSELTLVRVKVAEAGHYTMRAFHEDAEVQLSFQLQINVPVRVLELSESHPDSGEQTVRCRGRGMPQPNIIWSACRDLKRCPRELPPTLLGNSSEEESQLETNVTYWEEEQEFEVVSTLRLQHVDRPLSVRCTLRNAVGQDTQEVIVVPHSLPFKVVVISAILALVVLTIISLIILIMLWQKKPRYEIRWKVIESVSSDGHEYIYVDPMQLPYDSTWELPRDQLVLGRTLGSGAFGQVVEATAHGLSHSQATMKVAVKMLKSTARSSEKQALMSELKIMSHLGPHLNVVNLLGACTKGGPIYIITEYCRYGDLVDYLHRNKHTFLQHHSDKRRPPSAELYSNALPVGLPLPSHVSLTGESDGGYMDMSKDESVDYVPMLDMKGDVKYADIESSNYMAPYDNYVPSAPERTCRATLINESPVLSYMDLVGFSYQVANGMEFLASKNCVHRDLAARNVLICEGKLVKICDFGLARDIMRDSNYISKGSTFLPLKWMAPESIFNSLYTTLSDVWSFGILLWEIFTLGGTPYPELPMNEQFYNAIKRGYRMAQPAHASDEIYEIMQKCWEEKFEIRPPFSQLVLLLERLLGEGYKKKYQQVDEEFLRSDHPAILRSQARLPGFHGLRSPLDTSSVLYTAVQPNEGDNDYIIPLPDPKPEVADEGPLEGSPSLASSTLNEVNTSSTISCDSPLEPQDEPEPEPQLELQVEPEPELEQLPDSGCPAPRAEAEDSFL
Source text: A PDGF-R ELISA is described in International Patent Publication No. WO 96/40116, published December 19, 1996 by Tang et al.

EGFR = molecular target: T1, EGFR (Homo sapiens, UniProt P00533); assay: EGFR ELISA assay (in vitro kinase activity, EGFR captured from A431 cell lysate); format: biochemical; parameters: concentration or dose not given beside the values
T1 construct: Add 7 ug A431 cell lysate per well (EGFR source); endogenous in cells; host or cells: A431
T1 sequence (P00533 25-1210): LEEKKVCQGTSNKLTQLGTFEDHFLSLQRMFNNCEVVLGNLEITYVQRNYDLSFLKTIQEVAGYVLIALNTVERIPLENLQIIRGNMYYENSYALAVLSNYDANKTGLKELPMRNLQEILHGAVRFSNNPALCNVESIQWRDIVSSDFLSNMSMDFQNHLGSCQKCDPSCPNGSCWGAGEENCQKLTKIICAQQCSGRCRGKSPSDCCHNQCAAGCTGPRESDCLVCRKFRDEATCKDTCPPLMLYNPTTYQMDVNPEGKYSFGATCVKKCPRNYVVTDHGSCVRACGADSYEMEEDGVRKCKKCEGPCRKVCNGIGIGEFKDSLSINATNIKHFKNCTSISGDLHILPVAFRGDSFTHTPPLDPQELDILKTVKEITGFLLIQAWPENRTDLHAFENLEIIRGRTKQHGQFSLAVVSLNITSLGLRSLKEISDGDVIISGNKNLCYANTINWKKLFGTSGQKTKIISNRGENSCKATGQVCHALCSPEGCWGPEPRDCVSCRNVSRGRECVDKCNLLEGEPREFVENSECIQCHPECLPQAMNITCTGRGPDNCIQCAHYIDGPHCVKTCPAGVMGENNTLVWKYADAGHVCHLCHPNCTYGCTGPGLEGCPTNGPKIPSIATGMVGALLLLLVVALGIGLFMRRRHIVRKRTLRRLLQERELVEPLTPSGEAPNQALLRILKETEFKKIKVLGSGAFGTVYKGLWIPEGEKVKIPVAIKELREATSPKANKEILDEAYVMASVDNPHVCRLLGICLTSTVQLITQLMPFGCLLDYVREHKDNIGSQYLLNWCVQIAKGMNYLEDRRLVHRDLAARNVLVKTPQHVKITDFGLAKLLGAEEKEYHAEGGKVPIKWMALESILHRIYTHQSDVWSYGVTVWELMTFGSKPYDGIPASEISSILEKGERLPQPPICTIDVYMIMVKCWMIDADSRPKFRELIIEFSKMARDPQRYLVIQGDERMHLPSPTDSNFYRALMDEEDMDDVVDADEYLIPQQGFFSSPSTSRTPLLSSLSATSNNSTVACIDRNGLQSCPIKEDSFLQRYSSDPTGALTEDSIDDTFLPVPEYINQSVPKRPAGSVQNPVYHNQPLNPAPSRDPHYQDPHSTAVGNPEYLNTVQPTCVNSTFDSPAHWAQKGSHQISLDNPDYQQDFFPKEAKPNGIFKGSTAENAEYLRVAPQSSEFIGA
In short: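 EGFR from A431 lysate was captured on anti-EGFR antibody-coated plates and preincubated with compounds for 30 min. Autophosphorylation ran 5 min with 3 uM ATP and 5 mM MnCl2 (final), stopped with 20 mM EDTA. Phosphotyrosine was detected by anti-pTyr ELISA with ABTS/H2O2, read at 410 nm.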

| Structure (SMILES) | Met Kinase % Inhibition (MET) | PDGF Kinase %Inhibition (PDGF-R) | Biochem EGFR %Inhibition (EGFR) |
| --- | --- | --- | --- |
| COc1c([N+](=O)[O-])cc(C=C2C(=O)Nc3c(Br)cc(Br)cc32)cc1C(C)(C)C [10733/A03] | 24.9% | 23.2% | 33.6% |
| CC(C)(C)c1cc(C=C2C(=O)Nc3ccc(S(=O)(=O)N4CCOCC4)cc32)ccc1OCc1ccccc1 [10732/F06] | 45.7% | 0.2% | -8.0% |
| COc1c(C(C)(C)C)cc(C=C2C(=O)Nc3ccc(I)cc32)cc1C(C)(C)C [10733/B04] | 56.3% | 24.9% | 28.5% |
| CNS(=O)(=O)c1ccc2c(c1)C(=Cc1cc([N+](=O)[O-])c(OC)c(C(C)(C)C)c1)C(=O)N2 [10733/D03] | 32.8% | 40.7% | 11.2% |
| CC(C)(C)c1cc(C=C2C(=O)Nc3ccc(S(=O)(=O)N4CCOCC4)cc32)cc(Br)c1OCc1ccccc1 [10732/F08] | 76.6% | 14.9% | -11.9% |
| Cc1c(Br)ccc2c1C(=Cc1cc(I)c(OCc3ccccc3)c(C(C)(C)C)c1)C(=O)N2 [10733/C02] | 71.8% | 15.1% | 31.6% |
| CNS(=O)(=O)c1ccc2c(c1)C(=Cc1cc(C(C)(C)C)c(OC)c(C(C)(C)C)c1)C(=O)N2 [10733/D04] | 37.7% | 26.5% | 19.9% |
| CC(C)(C)c1cc(C=C2C(=O)Nc3ccc(S(=O)(=O)Nc4ccc(C(F)(F)F)cc4)cc32)cc(I)c1OCc1ccccc1 [10733/E02] | 60.5% | 20.8% | -1.3% |
| Cc1c(Br)ccc2c1C(=Cc1cc([N+](=O)[O-])ccc1O)C(=O)N2 [10733/C10] | 20.5% | -6.4% | 36.0% |
| COc1c(C)cc(C=C2C(=O)Nc3c(Br)cc(Br)cc32)cc1C [10733/A06] | 33.7% | -24.3% | 45.1% |
| Cc1cc(C=C2C(=O)Nc3c(Br)cc(Br)cc32)cc(C)c1OCc1ccccc1 [10733/A07] | 27.2% | -12.9% | 28.5% |
| CNS(=O)(=O)c1ccc2c(c1)C(=Cc1cc(C)c(OCc3ccccc3)c(C)c1)C(=O)N2 [10733/D07] | -6.8% | 0.9% | 37.4% |
| COc1c([N+](=O)[O-])cc(C=C2C(=O)Nc3ccc(I)cc32)cc1C(C)(C)C [10733/B03] | 62.2% | 35.8% | 14.4% |
